In patent publication US20240254119A1 (THIRD HARMONIC BIO, INC., priority 2022, published 2024):

Key:
PDGFRα = biological target: T1, PDGFRα (Homo sapiens, UniProt P16234); experiment: Caliper biochemical assay, PDGFRα; settings: Table 6
T1 construct: purchased Millipore 14-467 (lot 26321_ACTI)
Summary of the method: (§1)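 Kinase, FAM-labelled peptide substrate, ATP and Mn^2+ incubated with compound for 3 h at 25° C, then quenched with EDTA buffer. Substrate and phosphorylated product separated by microfluidic electrophoresis and quantified by fluorescence intensity; no-enzyme wells define 100% inhibition.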

CSF-1R = biological target: T2, CSF-1R (Homo sapiens, UniProt P07333); experiment: Caliper biochemical assay, CSF-1R; settings: Table 6
T2 construct: purchased Invitrogen PV3249 (lot 662393N)
T2 sequence (P07333 20-972): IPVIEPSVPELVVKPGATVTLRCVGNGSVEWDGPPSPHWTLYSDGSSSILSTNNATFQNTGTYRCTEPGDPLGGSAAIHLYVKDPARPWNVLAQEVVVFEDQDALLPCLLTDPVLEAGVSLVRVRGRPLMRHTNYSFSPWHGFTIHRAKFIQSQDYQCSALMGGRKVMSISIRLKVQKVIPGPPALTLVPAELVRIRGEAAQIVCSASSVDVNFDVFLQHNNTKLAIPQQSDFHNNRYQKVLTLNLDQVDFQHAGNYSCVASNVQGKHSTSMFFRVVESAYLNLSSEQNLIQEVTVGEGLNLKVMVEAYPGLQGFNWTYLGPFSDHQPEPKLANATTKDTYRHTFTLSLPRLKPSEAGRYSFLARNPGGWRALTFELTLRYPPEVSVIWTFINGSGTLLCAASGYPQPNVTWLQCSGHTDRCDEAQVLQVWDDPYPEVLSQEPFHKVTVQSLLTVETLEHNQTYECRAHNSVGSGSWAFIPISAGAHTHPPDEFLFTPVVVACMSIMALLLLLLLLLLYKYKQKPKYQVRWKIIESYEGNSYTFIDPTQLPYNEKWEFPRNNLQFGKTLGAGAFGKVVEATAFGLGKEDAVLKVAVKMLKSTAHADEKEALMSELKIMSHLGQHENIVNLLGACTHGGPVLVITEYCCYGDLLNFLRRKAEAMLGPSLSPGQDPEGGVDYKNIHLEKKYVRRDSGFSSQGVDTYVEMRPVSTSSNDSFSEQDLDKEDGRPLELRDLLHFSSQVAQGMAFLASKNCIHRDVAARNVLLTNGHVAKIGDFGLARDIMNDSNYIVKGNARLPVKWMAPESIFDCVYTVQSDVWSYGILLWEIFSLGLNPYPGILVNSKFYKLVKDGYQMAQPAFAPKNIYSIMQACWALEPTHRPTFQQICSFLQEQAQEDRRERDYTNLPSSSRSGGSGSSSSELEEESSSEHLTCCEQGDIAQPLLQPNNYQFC
Summary of the method: as §1

[1] = biological target: T3, BCRP (BCRP-MDCKII monolayer) (Homo sapiens, UniProt Q9UNQ0); experiment: MDCKII-BCRP bidirectional transport assay; format: in vitro ADME; settings: for MDCK-BCRP: Papp A-B: apical to basolateral
T3 construct: host or cells: MDCKII (canine kidney) cells
T3 sequence (Q9UNQ0 1-655): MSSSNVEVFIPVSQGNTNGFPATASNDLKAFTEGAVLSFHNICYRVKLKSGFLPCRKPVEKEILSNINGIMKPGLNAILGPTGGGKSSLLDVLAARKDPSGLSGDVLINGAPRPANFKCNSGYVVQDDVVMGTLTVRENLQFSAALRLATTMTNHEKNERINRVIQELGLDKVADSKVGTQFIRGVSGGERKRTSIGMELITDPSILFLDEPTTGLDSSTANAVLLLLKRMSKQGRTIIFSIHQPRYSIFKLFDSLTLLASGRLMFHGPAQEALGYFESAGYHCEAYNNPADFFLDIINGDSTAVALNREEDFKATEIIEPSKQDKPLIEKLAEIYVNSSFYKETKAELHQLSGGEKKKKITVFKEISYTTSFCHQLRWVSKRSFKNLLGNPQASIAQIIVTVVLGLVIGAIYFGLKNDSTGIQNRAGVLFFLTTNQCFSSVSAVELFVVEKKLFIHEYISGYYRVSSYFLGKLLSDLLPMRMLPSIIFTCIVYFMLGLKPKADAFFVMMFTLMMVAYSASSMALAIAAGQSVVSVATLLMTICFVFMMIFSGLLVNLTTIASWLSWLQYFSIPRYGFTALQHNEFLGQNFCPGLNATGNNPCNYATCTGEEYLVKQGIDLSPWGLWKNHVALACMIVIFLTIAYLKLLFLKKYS
Summary of the method: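 Bidirectional A→B and B→A transport across PreadyPort BCRP-MDCKII monolayers (days 12–15) was run in duplicate for 120 min at 37° C, 5% CO2 after a 15 min preincubation. Compound levels were measured by LC-MS/MS. Papp and recovery were calculated, with efflux ratio indicating transporter engagement.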

Kinetic solubility assay = format: physicochemical; settings: kinetic solubility, 50 mM PB (pH 7.4), shaken 24 hours at RT
Summary of the method: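 Test compounds from 10 mM DMSO stock were diluted in 50 mM phosphate buffer, pH 7.4, and shaken for 24 h at RT. After PTFE filtration and centrifugation, filtrate concentration was quantified by UPLC-UV/HPLC-UV against a standard curve.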

wtKIT = biological target: T4, wtKIT (Homo sapiens, UniProt P10721); experiment: Caliper biochemical assay, wtKIT; settings: Table 6, read-out: KIT Biochemical IC50 avg
T4 construct: 1888289AM in the reaction mixtures
T4 sequence (P10721 26-976): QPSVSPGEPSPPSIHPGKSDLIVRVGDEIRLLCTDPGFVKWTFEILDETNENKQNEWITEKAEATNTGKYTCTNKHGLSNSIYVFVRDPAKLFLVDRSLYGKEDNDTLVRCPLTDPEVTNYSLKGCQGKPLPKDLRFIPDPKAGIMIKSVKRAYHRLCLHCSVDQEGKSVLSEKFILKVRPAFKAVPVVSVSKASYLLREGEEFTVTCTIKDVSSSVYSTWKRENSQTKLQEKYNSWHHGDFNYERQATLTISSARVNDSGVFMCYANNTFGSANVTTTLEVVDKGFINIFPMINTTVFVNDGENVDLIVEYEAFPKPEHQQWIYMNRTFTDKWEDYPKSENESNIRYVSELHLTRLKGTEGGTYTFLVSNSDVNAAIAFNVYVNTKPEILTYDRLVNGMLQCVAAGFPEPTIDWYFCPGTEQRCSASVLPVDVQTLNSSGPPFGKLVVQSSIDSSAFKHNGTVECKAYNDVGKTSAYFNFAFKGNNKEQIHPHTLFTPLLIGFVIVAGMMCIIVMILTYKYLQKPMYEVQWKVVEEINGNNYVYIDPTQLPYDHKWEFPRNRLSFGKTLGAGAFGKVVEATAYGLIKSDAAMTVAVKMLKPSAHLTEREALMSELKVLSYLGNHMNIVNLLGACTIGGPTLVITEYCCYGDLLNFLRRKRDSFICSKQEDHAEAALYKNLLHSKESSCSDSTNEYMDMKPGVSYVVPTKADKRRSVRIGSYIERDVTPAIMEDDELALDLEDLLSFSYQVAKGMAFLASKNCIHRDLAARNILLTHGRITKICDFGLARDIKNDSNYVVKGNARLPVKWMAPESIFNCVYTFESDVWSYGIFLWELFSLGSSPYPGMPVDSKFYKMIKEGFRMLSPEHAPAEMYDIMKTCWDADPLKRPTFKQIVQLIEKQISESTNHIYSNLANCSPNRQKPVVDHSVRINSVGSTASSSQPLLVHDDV
Summary of the method: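 Enzyme (5.0 nM wtKIT), 1 μM FAM-labelled peptide, 400 μM ATP and 10 mM MnCl2 in HEPES pH 7.5 with 1% DMSO, incubated 3 h at 25° C. EDTA quench; substrate and phosphoproduct separated by microfluidic electrophoresis and quantified by fluorescence.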

T1 sequence (P16234 24-1089): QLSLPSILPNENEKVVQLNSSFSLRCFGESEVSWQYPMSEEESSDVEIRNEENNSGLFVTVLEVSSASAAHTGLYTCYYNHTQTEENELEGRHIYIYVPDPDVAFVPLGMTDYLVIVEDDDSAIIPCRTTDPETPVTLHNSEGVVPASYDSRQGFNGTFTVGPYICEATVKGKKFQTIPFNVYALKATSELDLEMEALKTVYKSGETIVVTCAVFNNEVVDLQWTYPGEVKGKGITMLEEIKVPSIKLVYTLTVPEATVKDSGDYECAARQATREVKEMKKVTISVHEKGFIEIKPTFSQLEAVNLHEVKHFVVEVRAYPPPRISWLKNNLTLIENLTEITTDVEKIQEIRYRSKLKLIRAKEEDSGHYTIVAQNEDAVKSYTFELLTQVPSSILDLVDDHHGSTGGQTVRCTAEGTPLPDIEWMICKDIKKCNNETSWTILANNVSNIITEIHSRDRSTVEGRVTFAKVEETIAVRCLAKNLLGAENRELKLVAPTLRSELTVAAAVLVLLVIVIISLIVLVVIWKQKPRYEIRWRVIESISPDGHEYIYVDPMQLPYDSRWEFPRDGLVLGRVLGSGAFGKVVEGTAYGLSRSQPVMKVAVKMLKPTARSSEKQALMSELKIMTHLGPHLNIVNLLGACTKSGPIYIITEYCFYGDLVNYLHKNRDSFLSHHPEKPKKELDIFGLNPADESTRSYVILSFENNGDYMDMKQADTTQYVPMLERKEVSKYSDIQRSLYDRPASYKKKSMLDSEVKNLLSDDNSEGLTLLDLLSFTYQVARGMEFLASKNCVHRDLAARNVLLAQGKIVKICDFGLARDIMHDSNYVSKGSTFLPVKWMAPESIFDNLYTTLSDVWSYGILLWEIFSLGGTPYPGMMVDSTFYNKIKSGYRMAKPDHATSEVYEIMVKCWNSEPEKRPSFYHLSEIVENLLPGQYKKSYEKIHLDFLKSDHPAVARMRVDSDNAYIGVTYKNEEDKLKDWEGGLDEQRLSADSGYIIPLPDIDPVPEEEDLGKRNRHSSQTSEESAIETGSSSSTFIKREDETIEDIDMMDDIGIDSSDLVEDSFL

SMILES	IC50 (PDGFRα) [nM]	IC50 (CSF-1R) [nM]	MDCK-BCRP: Efflux Ratio [1]	MDCK-BCRP: Papp A-B [1]	Solubility (μM) (Kinetic solubility assay)	IC50 (wtKIT) [nM]
COC(=O)N1CC(c2nc(-c3ccc(C)c(NC(=O)c4cnc5cc(O[C@@H](C)CO)ccn45)c3)no2)C1 (single isomer, unassigned) [Compound I-217]	50 to 500	≤ 50	28.1	0.86 10^−6 cm/s	** (a solubility greater than 10 μM and less than or equal to 50 μM)	≤ 50
Cc1ccc(-c2noc(C(C)NS(C)(=O)=O)n2)cc1NC(=O)c1cnc2ccccn12 (single isomer, unassigned) [Compound I-237]	5000 to 30000	500 to 5000	11.5	1.66 10^−6 cm/s	** (a solubility greater than 10 μM and less than or equal to 50 μM)	50 to 500
Cc1ccc(-c2noc(C(C)NS(C)(=O)=O)n2)cc1NC(=O)c1cnc2ccccn12 (single isomer, unassigned) [Compound I-238]	5000 to 30000	50 to 500	22.7	0.92 10^−6 cm/s	* (a solubility greater than 50 μM)	≤ 50
Cc1ccc(-c2noc([C@H]3C[C@@H]3F)n2)cc1NC(=O)c1cnc2cc(OC(C)C)ccn12 [Compound I-88]	50 to 500	≤ 50	0.89	29 10^−6 cm/s	**** (a solubility less than or equal to 2 μM)	≤ 50
Cc1ccc(-c2noc(CC(O)C(F)F)n2)cc1NC(=O)c1cnc2ccccn12 (stereo not drawn) [Compound I-114]	500 to 5000	50 to 500	8.07	3.03 10^−6 cm/s	**** (a solubility less than or equal to 2 μM)	≤ 50
Cc1ccc(-c2noc(CC3CC(F)(F)C3)n2)cc1NC(=O)c1cnc2ccccn12 [Compound I-124]	50 to 500	≤ 50	1.14	9.07 10^−6 cm/s	**** (a solubility less than or equal to 2 μM)	≤ 50
Cc1ccc(-c2noc(CC3CC3(F)F)n2)cc1NC(=O)c1cnc2ccccn12 (stereo not drawn) [Compound I-125]	50 to 500	≤ 50	1.6	9.07 10^−6 cm/s	**** (a solubility less than or equal to 2 μM)	≤ 50
Cc1nc(-c2ccc(C)c(NC(=O)c3cnc4cc(C(F)F)ccn34)c2)no1 [Compound I-134]	500 to 5000	500 to 5000	2.12	7.85 10^−6 cm/s	**** (a solubility less than or equal to 2 μM)	≤ 50
Cc1ccc(-c2noc(C3COC3)n2)cc1NC(=O)c1cnc2ccccn12 [Compound I-138]	500 to 5000	≤ 50	5.11	10.4 10^−6 cm/s	**** (a solubility less than or equal to 2 μM)	≤ 50
Cc1nc(-c2ccc(Cl)c(NC(=O)c3cnc4ccccn34)c2)no1 [Compound I-172]	500 to 5000	50 to 500	0.81	6.02 10^−6 cm/s	**** (a solubility less than or equal to 2 μM)	≤ 50
COC(=O)N1CC(c2nc(-c3ccc(C)c(NC(=O)c4cnn5cc(C#N)ccc45)c3)no2)C1 [Compound I-204]	5000 to 30000	50 to 500	6.11	3.27 10^−6 cm/s	*** (a solubility greater than 2 μM and less than or equal to 10 μM)	≤ 50
Cc1nc(-c2ccc(C)c(NC(=O)c3cnc4ccc(N(C)C)cn34)c2)no1 [Compound I-205]	50 to 500	≤ 50	1.66	23.5 10^−6 cm/s	**** (a solubility less than or equal to 2 μM)	≤ 50
CCCS(=O)(=O)N1CC(c2nc(-c3ccc(Cl)c(NC(=O)c4cnc5ccccn45)c3)no2)C1 [Compound I-220]	5000 to 30000	50 to 500	1.17	26.4 10^−6 cm/s	**** (a solubility less than or equal to 2 μM)	≤ 50
COC(=O)N1CC(c2nc(-c3ccc(C(F)F)c(NC(=O)c4cnc5ccccn45)c3)no2)C1 [Compound I-225]	5000 to 30000	50 to 500	3.27	11.2 10^−6 cm/s	** (a solubility greater than 10 μM and less than or equal to 50 μM)	≤ 50
COCCS(=O)(=O)N1CC(c2nc(-c3ccc(C)c(NC(=O)c4cnc5ccccn45)c3)no2)C1 [Compound I-235]	5000 to 30000	50 to 500	6.86	3.11 10^−6 cm/s	*** (a solubility greater than 2 μM and less than or equal to 10 μM)	≤ 50
COC(=O)N1CC(c2nc(-c3ccc(C)c(NC(=O)c4cnc5cc(OC[C@H](C)O)ccn45)c3)no2)C1 [Compound I-262]	50 to 500	≤ 50	46.5	0.54 10^−6 cm/s	** (a solubility greater than 10 μM and less than or equal to 50 μM)	≤ 50
COC(=O)N1CC(c2nc(-c3ccc(C)c(NC(=O)c4cnc5cc(OC[C@@H](C)O)ccn45)c3)no2)C1 [Compound I-263]	50 to 500	≤ 50	45.4	0.56 10^−6 cm/s	* (a solubility greater than 50 μM)	≤ 50
Cc1ccc(-c2noc([C@@H](C)O)n2)cc1NC(=O)c1cnc2ccccn12 [Compound I-270]	5000 to 30000	≤ 50	20.8	1.3 10^−6 cm/s	* (a solubility greater than 50 μM)	50 to 500
Cc1ccc(-c2noc([C@H](C)O)n2)cc1NC(=O)c1cnc2ccccn12 [Compound I-271]	500 to 5000	50 to 500	29.6	1.25 10^−6 cm/s	* (a solubility greater than 50 μM)	≤ 50
COC(=O)N1CC(c2nc(-c3ccc(C)c(NC(=O)c4cnn5ccc(Br)cc45)c3)no2)C1 [Compound I-280]	5000 to 30000	≤ 50	2.55	5.07 10^−6 cm/s	**** (a solubility less than or equal to 2 μM)	≤ 50
CNC(=O)N1CC(c2nc(-c3ccc(C)c(NC(=O)c4cnc5ccccn45)c3)no2)C1 [Compound I-282]	5000 to 30000	5000 to 30000	28.1	0.55 10^−6 cm/s	** (a solubility greater than 10 μM and less than or equal to 50 μM)	≤ 50
Cc1ccc(-c2noc(C3CN(C(=O)CO)C3)n2)cc1NC(=O)c1cnc2ccccn12 [Compound I-287]	5000 to 30000	5000 to 30000	0.65	11.8 10^−6 cm/s	*** (a solubility greater than 2 μM and less than or equal to 10 μM)	50 to 500
Cc1ccc(-c2noc([C@H]3C[C@@H]3F)n2)cc1NC(=O)c1cnc2ccc(F)cn12 [Compound I-288]	500 to 5000	50 to 500	1.01	7.81 10^−6 cm/s	**** (a solubility less than or equal to 2 μM)	≤ 50
